Laboratory results reported in ChEMBL document CHEMBL1149550, “5(Z)-benzylidene-1,2-dihydro-9-hydroxy-10-methoxy-2,2,4-trimethyl-5H-1-aza-6-oxa-chrysenes as non-steroidal glucocorticoid receptor modulators” (Bioorg Med Chem Lett, 2007).

Experiments:
Glucocorticoid receptor [1] = target: T1, Glucocorticoid receptor (Homo sapiens, UniProt P04150); type: functional
T1 sequence (P04150 whole entry): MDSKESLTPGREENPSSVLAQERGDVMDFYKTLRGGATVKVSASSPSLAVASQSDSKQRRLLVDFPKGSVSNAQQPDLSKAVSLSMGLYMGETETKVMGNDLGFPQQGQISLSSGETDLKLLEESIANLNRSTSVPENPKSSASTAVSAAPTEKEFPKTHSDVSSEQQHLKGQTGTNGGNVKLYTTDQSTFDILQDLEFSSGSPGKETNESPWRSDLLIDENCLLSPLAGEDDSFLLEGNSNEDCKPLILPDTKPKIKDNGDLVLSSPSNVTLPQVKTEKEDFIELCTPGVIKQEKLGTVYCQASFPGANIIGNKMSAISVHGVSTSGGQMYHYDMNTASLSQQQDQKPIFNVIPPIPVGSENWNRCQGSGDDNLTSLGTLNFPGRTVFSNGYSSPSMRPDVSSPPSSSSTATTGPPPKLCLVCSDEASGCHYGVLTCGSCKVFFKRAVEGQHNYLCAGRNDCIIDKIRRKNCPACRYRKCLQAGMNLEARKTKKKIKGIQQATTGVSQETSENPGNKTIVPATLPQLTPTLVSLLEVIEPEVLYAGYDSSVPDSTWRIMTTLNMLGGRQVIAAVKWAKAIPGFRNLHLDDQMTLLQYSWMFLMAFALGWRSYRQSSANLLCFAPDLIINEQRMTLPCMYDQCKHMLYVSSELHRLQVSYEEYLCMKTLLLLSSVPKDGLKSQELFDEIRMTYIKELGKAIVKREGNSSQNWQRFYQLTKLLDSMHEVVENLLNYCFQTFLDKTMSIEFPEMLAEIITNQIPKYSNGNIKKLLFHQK
Description: Agonist activity at GR by GRE activation assay

Glucocorticoid receptor [2] = target: T1, Glucocorticoid receptor; type: functional; remark: listed apart in the source
Description: Antagonist activity at GR assessed as inhibition of dexamethasone-induced GRE activation

Glucocorticoid receptor [3] = target: T1, Glucocorticoid receptor; type: functional; remark: listed apart in the source
Description: Activity at GR assessed as repression of TNFalpha and IL 1-beta induced E-selectin response

Glucocorticoid receptor [4] = target: T1, Glucocorticoid receptor
Description: Displacement of radiolabeled Dexamethasone from glucocorticoid receptor

Glucocorticoid receptor [5] = target: T1, Glucocorticoid receptor; remark: listed apart in the source
Description: Agonist activity at GR by GRE activation assay relative to Dexamethasone

Progesterone receptor = target: T2, Progesterone receptor (Homo sapiens, UniProt P06401); assay: Binding affinity at PR
T2 sequence (P06401 whole entry): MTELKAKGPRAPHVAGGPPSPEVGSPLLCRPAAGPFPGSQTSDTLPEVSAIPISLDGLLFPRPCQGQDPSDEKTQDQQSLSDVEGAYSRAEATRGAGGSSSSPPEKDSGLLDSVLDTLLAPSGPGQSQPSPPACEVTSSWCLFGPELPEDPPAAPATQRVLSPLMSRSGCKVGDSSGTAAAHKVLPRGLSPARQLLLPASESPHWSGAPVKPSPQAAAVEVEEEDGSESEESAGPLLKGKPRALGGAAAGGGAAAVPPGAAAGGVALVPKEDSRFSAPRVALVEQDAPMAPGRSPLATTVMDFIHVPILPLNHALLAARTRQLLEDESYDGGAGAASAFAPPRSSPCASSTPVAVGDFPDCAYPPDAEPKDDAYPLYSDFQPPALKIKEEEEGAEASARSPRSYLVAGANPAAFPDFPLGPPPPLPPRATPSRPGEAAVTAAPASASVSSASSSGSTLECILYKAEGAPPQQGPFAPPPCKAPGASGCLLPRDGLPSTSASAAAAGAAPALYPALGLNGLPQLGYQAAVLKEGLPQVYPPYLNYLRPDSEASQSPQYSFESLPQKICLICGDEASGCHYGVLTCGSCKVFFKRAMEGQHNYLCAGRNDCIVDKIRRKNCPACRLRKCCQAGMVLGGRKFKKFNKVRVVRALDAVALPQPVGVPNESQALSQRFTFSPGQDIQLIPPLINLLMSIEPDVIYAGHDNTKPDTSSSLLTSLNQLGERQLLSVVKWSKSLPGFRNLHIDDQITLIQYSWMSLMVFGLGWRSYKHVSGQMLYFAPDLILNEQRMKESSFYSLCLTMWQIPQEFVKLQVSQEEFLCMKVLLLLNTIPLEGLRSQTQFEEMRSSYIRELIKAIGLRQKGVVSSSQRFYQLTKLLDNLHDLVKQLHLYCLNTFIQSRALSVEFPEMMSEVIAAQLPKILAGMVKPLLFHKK

Androgen receptor = target: T3, Androgen receptor (Homo sapiens, UniProt P10275); assay: Binding affinity at AR
T3 sequence (P10275 whole entry): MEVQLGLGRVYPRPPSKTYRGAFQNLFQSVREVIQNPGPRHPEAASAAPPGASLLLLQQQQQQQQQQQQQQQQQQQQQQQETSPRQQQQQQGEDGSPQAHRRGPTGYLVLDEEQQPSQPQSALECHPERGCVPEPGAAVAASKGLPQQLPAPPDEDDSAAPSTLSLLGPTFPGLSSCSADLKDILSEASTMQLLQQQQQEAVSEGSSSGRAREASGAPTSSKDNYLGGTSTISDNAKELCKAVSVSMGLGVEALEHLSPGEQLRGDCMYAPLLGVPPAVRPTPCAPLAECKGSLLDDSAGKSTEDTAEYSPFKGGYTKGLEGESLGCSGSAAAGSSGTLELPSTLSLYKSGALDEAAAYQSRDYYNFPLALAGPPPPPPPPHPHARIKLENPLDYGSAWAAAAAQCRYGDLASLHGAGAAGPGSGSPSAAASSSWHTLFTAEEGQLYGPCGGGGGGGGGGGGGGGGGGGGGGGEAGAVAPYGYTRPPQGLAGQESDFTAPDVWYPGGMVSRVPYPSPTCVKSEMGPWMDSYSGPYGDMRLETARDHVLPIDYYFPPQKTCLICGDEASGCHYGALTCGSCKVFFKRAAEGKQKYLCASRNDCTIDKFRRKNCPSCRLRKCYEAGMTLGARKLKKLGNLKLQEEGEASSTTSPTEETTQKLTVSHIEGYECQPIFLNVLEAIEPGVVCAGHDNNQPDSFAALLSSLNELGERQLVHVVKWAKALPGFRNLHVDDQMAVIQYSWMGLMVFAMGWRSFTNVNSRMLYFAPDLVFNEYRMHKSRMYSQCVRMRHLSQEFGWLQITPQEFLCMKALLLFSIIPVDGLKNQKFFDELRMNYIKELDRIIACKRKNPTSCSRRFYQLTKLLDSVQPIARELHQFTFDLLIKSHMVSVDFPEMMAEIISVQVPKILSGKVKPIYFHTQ

| Structure (SMILES) | EC50 (Glucocorticoid receptor [1]) [nM] | IC50 (Glucocorticoid receptor [2]) [nM] | IC50 (Glucocorticoid receptor [3]) [nM] | Ki (Glucocorticoid receptor [4]) [nM] | EC50 (Glucocorticoid receptor [5]) [nM] | EC50 (Glucocorticoid receptor [2]) [nM] | Ki (Progesterone receptor) [nM] | Ki (Androgen receptor) [nM] |
| --- | --- | --- | --- | --- | --- | --- | --- | --- |
| COc1c(O)ccc2c1-c1ccc3c(c1/C(=C/c1cccc(-c4ccsc4)c1)O2)C(C)=CC(C)(C)N3 | > 1000 | 0.5 | 1.4 | 3.1 | > 1000 | – | – | – |
| COc1c(O)ccc2c1-c1ccc3c(c1/C(=C/c1ccc(Cl)cc1)O2)C(C)=CC(C)(C)N3 | 43 | > 1000 | 12 | 1.7 | – | – | – | – |
| COc1ccc(/C=C2\Oc3ccc(O)c(OC)c3-c3ccc4c(c32)C(C)=CC(C)(C)N4)cc1 | 133 | – | 10 | 2.7 | – | > 1000 | – | – |
| COc1c(O)ccc2c1-c1ccc3c(c1/C(=C/c1ccccc1C)O2)C(C)=CC(C)(C)N3 | 3.4 | 0.4 | 1 | 1.7 | – | – | – | – |
| COc1c(O)ccc2c1-c1ccc3c(c1/C(=C/c1cccc(-c4cccnc4)c1)O2)C(C)=CC(C)(C)N3 | > 1000 | 0.7 | 3.6 | 1.5 | > 1000 | – | – | – |
| COc1c(O)ccc2c1-c1ccc3c(c1/C(=C/c1cccc(Oc4ccccc4)c1)O2)C(C)=CC(C)(C)N3 | > 1000 | 1.9 | 74 | 4.6 | > 1000 | – | – | – |
| COc1c(O)ccc2c1-c1ccc3c(c1/C(=C/c1cccc(-c4ccccc4)c1)O2)C(C)=CC(C)(C)N3 | > 1000 | 2.3 | 12 | 7.2 | > 1000 | – | – | – |
| COc1c(O)ccc2c1-c1ccc3c(c1/C(=C/c1cccc(C)c1)O2)C(C)=CC(C)(C)N3 | – | – | – | – | – | – | 400 | 570 |
| CCc1ccc(/C=C2\Oc3ccc(O)c(OC)c3-c3ccc4c(c32)C(C)=CC(C)(C)N4)cc1 | 207 | – | – | – | – | > 1000 | – | – |
| COc1c(O)ccc2c1-c1ccc3c(c1/C(=C/c1ccc(F)cc1S(=O)(=O)N1CCCCC1)O2)C(C)=CC(C)(C)N3 | 108 | 6.6 | 22 | 94 | – | – | – | – |
| COc1c(O)ccc2c1-c1ccc3c(c1/C(=C/c1ccc(C(C)C)cc1)O2)C(C)=CC(C)(C)N3 | 455 | – | – | 2.9 | – | > 1000 | – | – |
| COc1c(O)ccc2c1-c1ccc3c(c1/C(=C/c1ccccc1-c1ccccc1)O2)C(C)=CC(C)(C)N3 | 4.5 | 3.6 | 4.4 | 6.7 | – | – | – | – |
| COc1c(O)ccc2c1-c1ccc3c(c1/C(=C/c1ccccc1Cl)O2)C(C)=CC(C)(C)N3 | 18 | 24 | 18 | 15 | – | – | – | – |
| COc1c(O)ccc2c1-c1ccc3c(c1/C(=C/c1cccc(C(F)(F)F)c1)O2)C(C)=CC(C)(C)N3 | > 1000 | 2.5 | 4.1 | 2.7 | > 1000 | – | – | – |
| COc1c(O)ccc2c1-c1ccc3c(c1/C(=C/c1ccc(O)cc1)O2)C(C)=CC(C)(C)N3 | 1.1 | 0.4 | 1 | 1.1 | – | – | – | – |
| COc1c(O)ccc2c1-c1ccc3c(c1/C(=C/c1cccc(C)n1)O2)C(C)=CC(C)(C)N3 | 0.7 | 1.1 | 4.9 | 1.6 | – | – | – | – |
| COc1c(O)ccc2c1-c1ccc3c(c1/C(=C/c1ccccc1F)O2)C(C)=CC(C)(C)N3 | 0.6 | 1.3 | 1.4 | 0.8 | – | – | – | – |
| COc1c(O)ccc2c1-c1ccc3c(c1/C(=C/c1cccc(C(F)(F)F)c1C)O2)C(C)=CC(C)(C)N3 | – | 2.6 | 15 | 2.6 | – | – | – | – |
| COc1c(O)ccc2c1-c1ccc3c(c1/C(=C/c1ccc(-c4ccccc4)cc1)O2)C(C)=CC(C)(C)N3 | 33 | – | 77 | 4.4 | – | > 1000 | – | – |
| COc1c(O)ccc2c1-c1ccc3c(c1/C(=C/c1ccc(C)cc1)O2)C(C)=CC(C)(C)N3 | 38 | 12 | 15 | 1.9 | – | – | – | – |
| COc1c(O)ccc2c1-c1ccc3c(c1/C(=C/c1ccc(OC(F)(F)F)cc1)O2)C(C)=CC(C)(C)N3 | > 1000 | – | 91 | 4.3 | – | > 1000 | – | – |
| COc1c(O)ccc2c1-c1ccc3c(c1/C(=C/c1cccc(OC(F)(F)F)c1)O2)C(C)=CC(C)(C)N3 | > 1000 | 1.9 | 4.7 | 4.1 | > 1000 | – | – | – |
